Among the data in patent US8722718B2, “Inhibitors of C-FMS kinase” (Janssen Pharmaceutica NV, priority 2006, dated 2014) are IC50 values, retold here.

The test system of experiment [1] is mouse bone-marrow derived macrophages (BMDM). As to the kind of experiment: CSF-1-driven mouse bone-marrow derived macrophages proliferation assay (BrDU incorporation). It counts as cell-based. The following applies: mCSF driven proliferation, read-out: mCSF driven proliferation BMDM (Mouse) IC-50. On the procedure:
CSF-1-Driven Mouse Bone-Marrow Derived Macrophages Assay
Macrophages are derived by culturing mouse bone marrow in alpha-MEM supplemented with 10% FCS and 50 ng/ml recombinant mouse CSF-1 in bacteriologic dishes. On the sixth day, macrophages are detached from dishes, washed, and resuspended to 0.05 million cells/ml in alpha-MEM containing 10% FCS. One hundred ul of cell suspension are distributed per well into 96 well culture plates. Wells are further supplemented with the addition of 50 ul media containing 15 ng/ml CSF-1, 3 uM Indomethacin, and 3× of a dilution series of test compounds. The cells are cultured for 30 hrs at 37 degrees and 5% CO2. During the final six hours, cultures are supplemented with an additional 30 ul of media containing a 1:500 dilution of bromodeoxyuridine (BrDU). At the end of the culture period, the plates are spun at 1000 RPM for 1 minute and 130 ul of media is removed with a pipet and replaced with 150 ul of fixative solution for 1 hour @ room temperature. The fixative is then dispelled from the plates and the plates allowed to air dry. Incorporation of BrDU into the fixed, dried cells is quantified using a specific ELISA.

A further experiment deals with c-fms (Homo sapiens (Human), UniProt P07333). Description: c-fms autophosphorylation fluorescence polarization competition immunoassay (1 nM c-fms; peptide Pi assay). Format: biochemical. The following applies: read-out: 1 nM c-fms, peptide Pi assay IC-50. On the procedure: Fluorescence Polarization Competition Immunoassay
The assay buffer used was 100 mM 4-(2-hydroxyethyl)piperazine 1-ethanesulfonic acid (HEPES), pH 7.5, 1 mM 1,4-dithio-DL-threitol (DTT), 0.01% (v/v) Tween-20. Compounds were diluted in assay buffer containing 4% dimethylsulfoxide (DMSO) just prior to the assay. […] The kinase reaction was initiated by adding 2 μL of 5 mM ATP (Sigma) in assay buffer. […] Control reactions were ran in each plate: in positive and negative control wells, assay buffer (made 4% in DMSO) was substituted for the compound; in addition, positive control wells received 1.2 μL of 50 mM ethylenediaminetetraaceticacid (EDTA).
The plates were incubated at room temperature for 45 min. At the end of the incubation, the reaction was quenched with 1.2 μL of 50 mM EDTA (EDTA was not added to the positive control wells at this point; see above). Following a 5-min incubation, each well received 10 μL of a 1:1:3 mixture of anti-phosphotyrosine antibody, 10×, PTK green tracer, 10× (vortexed), FP dilution buffer, respectively (all from PanVera, cat. #P2837). The plate was covered, incubated for 30 min at room temperature and the fluorescence polarization was read on the Analyst. The instrument settings were: 485 nm excitation filter; 530 nm emission filter; Z height: middle of well; G factor: 0.93. […] The reported IC50 values are averages of three independent measurements.
(In general: Fluorescence polarisation rises when a labelled molecule tumbles more slowly, as on binding a larger partner.)

Chain of c-fms (P07333 20-972): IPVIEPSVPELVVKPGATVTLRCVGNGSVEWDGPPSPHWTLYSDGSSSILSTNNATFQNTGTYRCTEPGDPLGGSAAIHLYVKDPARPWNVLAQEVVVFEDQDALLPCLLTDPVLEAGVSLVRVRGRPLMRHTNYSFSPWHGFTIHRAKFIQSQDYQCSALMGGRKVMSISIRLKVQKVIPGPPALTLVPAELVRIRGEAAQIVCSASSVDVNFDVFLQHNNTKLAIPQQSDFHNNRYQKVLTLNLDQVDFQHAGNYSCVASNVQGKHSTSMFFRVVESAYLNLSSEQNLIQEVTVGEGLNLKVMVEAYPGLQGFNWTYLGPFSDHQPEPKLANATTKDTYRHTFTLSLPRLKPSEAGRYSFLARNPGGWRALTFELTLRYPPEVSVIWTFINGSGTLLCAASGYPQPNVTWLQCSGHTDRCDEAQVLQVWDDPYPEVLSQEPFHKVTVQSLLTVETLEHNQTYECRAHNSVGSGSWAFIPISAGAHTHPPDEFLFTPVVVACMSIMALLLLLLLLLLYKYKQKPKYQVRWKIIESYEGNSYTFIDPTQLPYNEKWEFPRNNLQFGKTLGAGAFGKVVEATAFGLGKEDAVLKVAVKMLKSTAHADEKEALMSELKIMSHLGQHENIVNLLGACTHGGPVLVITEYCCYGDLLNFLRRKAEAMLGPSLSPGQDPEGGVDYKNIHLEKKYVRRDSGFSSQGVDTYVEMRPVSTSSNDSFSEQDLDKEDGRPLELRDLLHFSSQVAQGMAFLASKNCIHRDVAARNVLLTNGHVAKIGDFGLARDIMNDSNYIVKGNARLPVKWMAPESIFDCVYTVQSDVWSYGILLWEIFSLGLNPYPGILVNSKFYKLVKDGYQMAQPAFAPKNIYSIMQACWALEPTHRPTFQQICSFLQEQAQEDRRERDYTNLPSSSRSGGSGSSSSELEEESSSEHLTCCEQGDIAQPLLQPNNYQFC

For `CC1(c2ccc(NC(=O)c3nc(C#N)c[nH]3)c(C3=CCCCC3)c2)OCCCO1` [Example 2, 4-Cyano-1H-imidazole-2-carboxylic acid [2-cyclohex-1-enyl-4-(2-methyl-[1,3]dioxan-2-yl)-phenyl]-amide], the IC50 in experiment [1] came to 44 nM; at c-fms it was 3.9 nM.
On the same counts, the results for `CC1(c2ccc(NC(=O)c3ncc(C#N)[nH]3)c(C3=CCCCC3)c2)OCCO1` [Example 1, 5-Cyano-1H-imidazole-2-carboxylic acid [2-cyclohex-1-enyl-4-(2-methyl-[1,3]dioxolan-2-yl)-phenyl]-amide] are 48 nM and 3.4 nM.
